Each structure is given as a SMILES string. pEC50, pIC50: −log10 of the molar value. Read-outs that look alike come from different tables or passages of the source.

By pIC50 is commonly meant −log10 of the IC50, conventionally taken in molar units.

For assay [1], the target named is T1, recombinant human HDAC-1 enzyme (rHDAC-1) (Homo sapiens, UniProt Q13547).
T1 construct: made in house; host or cells: Baculovirus insect cell expression system
Put plainly: Histone deacetylase inhibition, recombinant human HDAC-1. The assay is classed as biochemical. Particulars: cloned recombinant human HDAC-1, Baculovirus insect cell expression; read-out: rHDAC-1 IC50. Put shortly:
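Recombinant human HDAC-1 or pooled HDACs from H446 nuclear extracts were preincubated with compounds for 30 min at 4 °C before the reaction. Released [3H]-acetic acid was extracted with ethyl acetate after acid stop and counted by scintillation. IC50 was the concentration giving half-maximal inhibition from dose-response curves.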

Assay [2] has as its system acetylated histone H-4 in T24 human bladder cancer cells. Put plainly: Histone H4 acetylation in whole cells by immunoblots. It is filed as cell-based. Here is the method: T24 human bladder cancer cells growing in culture were incubated with HDAC inhibitors for 16 hours. Histones were extracted from the cells after the culture period as described by M. Yoshida et al. (J. Biol. Chem. 265(28): 17174-17179 (1990)). 20 μg of total histone protein was loaded onto SDS/PAGE and transferred to nitrocellulose membranes. Membranes were probed with polyclonal antibodies specific for acetylated histone H-4 (Upstate Biotech Inc.), followed by horse radish peroxidase conjugated secondary antibodies (Sigma). Enhanced Chemiluminescence (ECL) (Amersham) detection was performed using Kodak films (Eastman Kodak). Acetylated H-4 signal was quantified by densitometry.
A general note: A western blot detects proteins with antibodies after separation by electrophoresis.

The subject of assay [3] is histone deacetylase enzyme in nuclear extracts from H446 cells (pooled HDACs). The assay can be described thus: Histone deacetylase inhibition, H446 nuclear extracts (pooled HDACs). The assay is classed as biochemical, human. The conditions noted are these: for pIC50: H446 nuclear extract, [3H]-acetylated histone substrate; for pooled HDACs percent inhibition: percent inhibition at 20 μM (footnote). Here is the method: HDAC inhibitors were screened against histone deacetylase enzyme in nuclear extracts prepared from the human small cell lung cancer cell line H446 (ATTC HTB-171) and against a cloned recombinant human HDAC-1 enzyme expressed and purified from a Baculovirus insect cell expression system.
For deacetylase assays, 20,000 cpm of the [^3H]-metabolically labeled acetylated histone substrate (M. Yoshida et al., J. Biol. Chem. 265(28): 17174-17179 (1990)) was incubated with 30 μg of H446 nuclear extract or an equivalent amount of the cloned recombinant hHDAC-1 for 10 minutes at 37° C. The reaction was stopped by adding acetic acid (0.04 M, final concentration) and HCl (250 mM, final concentration). The mixture was extracted with ethyl acetate and the released [^3H]-acetic acid was quantified by scintillation counting. For inhibition studies, the enzyme was preincubated with compounds at 4° C. for 30 minutes prior to initiation of the enzymatic assay. IC50 values for HDAC enzyme inhibitors were determined by performing dose response curves with individual compounds and determining the concentration of inhibitor producing fifty percent of the maximal inhibition.

Where [4] appears, read: T-24, read-out: EC50, concentration effective for reducing the acetylated H-4 signal by 50%, T24 cells, 16 hours incubation, immunoblot densitometry.

T1 sequence (Q13547 whole entry): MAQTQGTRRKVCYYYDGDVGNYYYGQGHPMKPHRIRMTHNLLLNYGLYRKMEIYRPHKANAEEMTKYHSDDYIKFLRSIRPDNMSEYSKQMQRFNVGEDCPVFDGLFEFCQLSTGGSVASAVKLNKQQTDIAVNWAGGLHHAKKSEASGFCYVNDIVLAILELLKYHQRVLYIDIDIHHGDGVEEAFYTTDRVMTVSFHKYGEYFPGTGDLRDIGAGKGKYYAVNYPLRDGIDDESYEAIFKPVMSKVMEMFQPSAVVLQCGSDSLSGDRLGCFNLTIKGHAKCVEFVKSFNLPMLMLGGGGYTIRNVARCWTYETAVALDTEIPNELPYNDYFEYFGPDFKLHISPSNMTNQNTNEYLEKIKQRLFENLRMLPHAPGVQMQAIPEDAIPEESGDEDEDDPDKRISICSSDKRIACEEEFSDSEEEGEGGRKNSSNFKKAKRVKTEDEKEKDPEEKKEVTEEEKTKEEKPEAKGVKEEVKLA

For the compound `O=C(/C=C/C=C/CCC(=O)c1ccc(-c2ccccc2)cc1)NO` [Compound 205, (E,E)-N-Hydroxy-7-[(4-biphenyl)carbonyl]-2,4-heptadienamide], the negative logarithm of the IC50 (pIC50) in assay [1] was 7.40. Further, in assay [2] (setting [4]), the pEC50 is 5.52.

With `COc1ccc(-c2ccc(C(=O)CCCCCCC(=O)Nc3ccccc3N)cn2)cc1OC` [Compound 151, N-(2-Aminophenyl)-7-[5-(2-(3,4-dimethoxyphenyl)pyridyl)carbonyl]heptanamide], the pIC50 in assay [1] is 5.40. Also, in assay [2] (setting [4]), the pEC50 was 5.52.

Turning to `O=C(CCCCCCC(=O)c1ccc(-c2ccccc2)nc1)NO` [Compound 145, N-Hydroxy-7-[(5-(2-phenyl)pyridyl)carbonyl]heptanamide], in assay [1], the negative logarithm of the IC50 (pIC50) was 8.10. In addition, the pEC50 in assay [2] (setting [4]) is 5.00.

In the case of `Nc1ccccc1NC(=O)CCCCCCC(=NO)c1cccc(-c2ccccc2)c1` (mixture of isomers) [Compound 134, N-(2-Aminophenyl)-8-(E)-oximino-8-(3-biphenyl)octanamide], the negative-log IC50 (pIC50) in assay [1] was 6.00. Moreover, in assay [2] (setting [4]), the pEC50 was 5.00.

In the case of `Nc1ccccc1NC(=O)/C=C/C=C/CCC(=O)c1ccc(-c2ccccc2)cc1` [Compound 204, (E,E)-N-(2-Aminophenyl)-7-[(4-biphenyl)carbonyl]-2,4-heptadienamide], the pIC50 in assay [1] was 5.30. In assay [2] (setting [4]), the pEC50 is 4.82.

For `Nc1ccccc1NC(=O)CCCCCCC(=O)c1ccc(-c2ccccc2)nc1` [Compound 146, N-(2-Aminophenyl)-7-[(5-(2-phenyl)pyridyl)carbonyl]heptanamide], the negative-log IC50 (pIC50) in assay [1] is 5.70. Moreover, in assay [2] (setting [4]), the pEC50 was 5.30.

In the case of `CC(=O)SCC(=O)CCCCCC(=O)c1cc2ccccc2s1` [Compound 160, 1-Acetylthio-2,8dioxo-8-(2-benzo[b]thiophene)-octane], the pIC50 in assay [1] is 6.89; in assay [3], 7.10.

On to `O=C(NCCCCCC(=O)c1ccc(-c2ccccc2)cc1)Nc1ccccc1O` [Compound 93, N-(2-Hydroxyphenyl)-N′-[5-((4-biphenyl)carbonyl)pentyl]urea], for which the pIC50 in assay [1] is 5.19. Also, in assay [3], the “pooled HDACs percent inhibition” value was determined as 0%.

Take `O=C(CCCCCCC(=O)c1ccccc1)CSCc1ccccc1` [Compound 159c, 1-Benzylthio-2,9-dioxo-9-phenyl-nonane]: the pIC50 in assay [1] is 5.30. For the same compound, in assay [3], the “pooled HDACs percent inhibition @ 5 μM” value amounted to 0%@ 5 μM.

Turning to `O=C(CS)CCCCCC(=O)c1cc2ccccc2s1` [Compound 161, 1-Mercapto-2,8-dioxo-8-(2-benzo[b]thiophene)-octane], the negative logarithm of the IC50 (pIC50) is 7.15 in assay [1] and 7.03 in assay [3].

Take `COc1ccc(C(C/C=C/C=C/C(=O)NO)OC)cc1` (centres unmarked) [Compound 6, N-Hydroxy-7-methoxy-7-(4-methoxyphenyl)-2,4-heptadienamide]: the figures for the negative logarithm of the IC50 (pIC50) in assay [1] and in assay [3] were 6.60 and 5.52, respectively.

On to `O=C(CS)CCCCCCC(=O)c1cc2ccccc2s1` [Compound 163, 1-Mercapto-2,9-dioxo-9-(2-benzo[b]thiophene)-nonane], for which the negative logarithm of the IC50 (pIC50) is 8.00 in assay [1] and 7.40 in assay [3].

In the case of `O=C(CCCCCn1nnc2ccccc2c1=O)NO` [Compound 238b, N-Hydroxy-6-[3-(4-oxo-4H-benzo[d][1,2,3]triazinyl)]hexanamide], in assay [1], the pIC50 was 6.12. In addition, in assay [3], the “pooled HDACs percent inhibition @ 1 μM” value came to 20%@ 1 μM.

In the case of `CC(=O)SCC(=O)CCCCCCC(=O)c1cc2ccccc2s1` [Compound 162, 1-Acetylthio-2,9-dioxo-9-(2-benzo[b]thiophene)-nonane], the pIC50 was 7.46 in assay [1] and 7.40 in assay [3].

Take `Nc1ccccc1CNC(=O)CCCCCCC(=O)c1ccc(-c2ccccc2)cc1` [Compound 75, N-(2-Aminobenzyl)-7-[(4-biphenyl)carbonyl]heptanamide]: in assay [1], the negative-log IC50 (pIC50) was 5.08. For the same compound, in assay [3], the “pooled HDACs percent inhibition” value is recorded as 0%.

Take `O=C(CCCCCCC(=O)c1ccccc1)CSC(=O)c1ccccc1` [Compound 159f, 1-Benzoylthio-2,9-dioxo-9-phenyl-nonane]: the results for the negative logarithm of the IC50 (pIC50) in assay [1] and in assay [3] were 6.15 and 6.46, respectively.

Take `O=C(CCCCCCOc1ccc(-c2ccccc2)cc1)NO` [Compound 235, N-Hydroxy-7-(4-biphenyloxy)heptanamide]: in assay [2] (T-24, 16 h, read-out: EC50, concentration effective for reducing the acetylated H-4 signal by 50%), the pEC50 was 5.30.

Take `O=C(NCCCCCCC(=O)c1ccccc1)Nc1ccccc1O` [Compound 253]: the negative-log IC50 (pIC50) in assay [1] is less than 4.70. For the same compound, in assay [3], the “pooled HDACs percent inhibition” value is recorded as 0%.

On to `COc1ccc(C(OC)C(C)(C)CCCCC(=O)NO)cc1` (centres unmarked) [Compound 28, N-Hydroxy-6,6-dimethyl-7-methoxy-7-(4-methoxyphenyl)heptanamide], for which the results for the negative-log IC50 (pIC50) in assay [1] and in assay [3] were 7.00 and 5.40, respectively.

For `O=C(CCCCCCC(=O)c1ccco1)NO` [Compound 52i, N-hydroxy-7-(2-furanoyl)-heptanamide], the negative-log IC50 (pIC50) in assay [1] is 7.00; in assay [3], 5.52.

In the case of `O=C(CCCCCCC(=O)c1cc2ccccc2s1)NO` [Compound 52m, N-hydroxy-7-(2-benzothiophene)carbonylheptanamide], the negative logarithm of the IC50 (pIC50) in assay [1] was 8.00; in assay [3], 7.00.

On to `O=C(CCCCCCC(=O)c1ccc(C(F)(F)F)cc1)NO` [Compound 52c, N-hydroxy-7-(4-trifluoromethylbenzoyl)heptanamide], for which the pIC50 was 7.22 in assay [1] and 6.26 in assay [3].

Consider `O=C(CCCCCC(=O)c1cc2ccccc2[nH]1)NO` [Compound 112, N-Hydroxy-6-[(2-indolyl)carbonyl]hexanamide], for which the pIC50 is 7.41 in assay [1] and 6.60 in assay [3].

Take `O=C(CCCCCCC(=O)c1ccc(Nc2nccs2)cc1)NO` [Compound 138e, N-Hydroxy-7-[4-(N-2-aminothiazolyl)benzoyl]heptanamide]: the pIC50 in assay [1] was 8.40; in assay [3] it was 7.70.

As for `Nc1ccccc1NC(=O)NCCCCCCC(=O)c1ccccc1` [Compound 89, N-(2-Aminophenyl)-N′-[6-(benzoyl)hexyl]urea], the pIC50 in assay [1] is 4.79. For the same compound, in assay [3], the “pooled HDACs percent inhibition” value is 0%.

In the case of `CC(=O)SCC(=O)CCCCCCC(=O)c1ccccc1` [Compound 159a, 1-Acetylthio-2,9-dioxo-9-phenyl-nonane], the results for the pIC50 in assay [1] and in assay [3] were 7.00 and 7.30, respectively.

With `Nc1ccccc1NC(=O)CCCCCCC(=O)c1ccc2ccccc2c1` [Compound 63, N-(2-Aminophenyl)-7-(2-naphthoyl)heptanamide], the negative-log IC50 (pIC50) was 5.66 in assay [1] and less than 4.70 in assay [3].

For `Cn1c(C(=O)CCCCCCC(=O)NO)cc2ccccc21` [Compound 103, N-Hydroxy-7-[2-((N-methyl)indolyl)carbonyl]heptanamide], the negative logarithm of the IC50 (pIC50) was 7.30 in assay [1] and 7.00 in assay [3].

Take `O=C(CCCCCCC(=O)c1ccc(Oc2ccccc2)cc1)NO` [Compound 104, N-Hydroxy-7-(4-phenoxybenzoyl)heptanamide]: the pIC50 in assay [1] was 6.80. The “pooled HDACs percent inhibition @ 1 μM” value in assay [3] is recorded as 61%@ 1 μM.

In the case of `COC(C/C=C/C=C/C(=O)NO)c1ccc(N(C)C)cc1` (centres unmarked) [Compound 17, N-Hydroxy7-methoxy-7-[4-(N,N-dimethylamino)phenyl]-2,4-heptadienamide], the pIC50 in assay [1] was 6.60; in assay [3] it was 5.40.

Consider `O=C(CCCCCCC(=O)c1cccc2ccccc12)NO` [Compound 52f, N-hydroxy-7-(1-naphthoyl)heptanamide], for which the pIC50 in assay [1] was 8.00; in assay [3], 6.26.

On to `CSCC(=O)CCCCCCC(=O)c1ccccc1` [Compound 159b, 1-Methylthio-2,9-dioxo-9-phenyl-nonane], for which, in assay [1], the pIC50 was 6.30. In addition, the “pooled HDACs percent inhibition @ 5 μM” value in assay [3] was found to be 14%@ 5 μM.

Regarding `O=C(CCCCCCC(=O)c1ccccc1)CSc1ccccc1` [Compound 159d, 1-Phenylthio-2,9-dioxo-9-phenyl-nonane], the pIC50 in assay [1] is 5.30; in assay [3] it was 4.30.

For the compound `O=C(CCCCCCC(=NO)c1cc2ccccc2o1)NO` (mixture of isomers) [Compound 98, N-Hydroxy-8-(E)-oximino-8-(2-benzofuryl)octanamide], the negative-log IC50 (pIC50) in assay [1] is 7.52; in assay [3], 7.40.

Take `O=C(CCCCCCC(=O)c1cc2ccccc2o1)NO` [Compound 52l, N-hydroxy-7-(2-benzofuran)carbonylheptanamide]: the figures for the pIC50 in assay [1] and in assay [3] were 7.52 and 6.52, respectively.

As for `Cn1c(C(=O)CCCCCCC(=O)CS)cc2ccccc21` [Compound 166, 1-Mercapto-2,9-dioxo-9-(2-N-methylindolyl)-nonane], the pIC50 in assay [1] was 6.38; in assay [3], 7.30.

These data come from US7288567B2, “Inhibitors of histone deacetylase” (Methylgene Inc., priority 2000, dated 2007).
